In the NIST ThermoML archive (doi:10.1021/je050065n):
± gives the expanded uncertainty stated by the source.

Test: molar heat capacity at constant pressure
Settings: 101.33 kPa

## CCCCCCCCCCC(=O)OCC [ethyl undecanoate]
111.58 K, Crystal
  molar heat capacity at constant pressure: 173.66 ± 3 J/K/mol
113.84 K, Crystal
  molar heat capacity at constant pressure: 175.94 ± 3 J/K/mol
116.71 K, Crystal
  molar heat capacity at constant pressure: 178.91 ± 3 J/K/mol
119.57 K, Crystal
  molar heat capacity at constant pressure: 181.88 ± 3.1 J/K/mol
122.42 K, Crystal
  molar heat capacity at constant pressure: 185.27 ± 3.1 J/K/mol
128.15 K, Crystal
  molar heat capacity at constant pressure: 190.48 ± 3.1 J/K/mol
131.02 K, Crystal
  molar heat capacity at constant pressure: 194.47 ± 3.2 J/K/mol
133.86 K, Crystal
  molar heat capacity at constant pressure: 198.69 ± 3.2 J/K/mol
136.66 K, Crystal
  molar heat capacity at constant pressure: 198.56 ± 3.2 J/K/mol
139.44 K, Crystal
  molar heat capacity at constant pressure: 201.64 ± 3.2 J/K/mol
142.19 K, Crystal
  molar heat capacity at constant pressure: 204.69 ± 3.2 J/K/mol
144.9 K, Crystal
  molar heat capacity at constant pressure: 207.94 ± 3.3 J/K/mol
147.59 K, Crystal
  molar heat capacity at constant pressure: 211.29 ± 3.3 J/K/mol
150.26 K, Crystal
  molar heat capacity at constant pressure: 213.75 ± 3.3 J/K/mol
152.89 K, Crystal
  molar heat capacity at constant pressure: 217.3 ± 3.3 J/K/mol
155.51 K, Crystal
  molar heat capacity at constant pressure: 220.97 ± 3.4 J/K/mol
158.1 K, Crystal
  molar heat capacity at constant pressure: 224.09 ± 3.4 J/K/mol
160.67 K, Crystal
  molar heat capacity at constant pressure: 229.12 ± 3.4 J/K/mol
163.21 K, Crystal
  molar heat capacity at constant pressure: 233.25 ± 3.5 J/K/mol
165.73 K, Crystal
  molar heat capacity at constant pressure: 236.15 ± 3.5 J/K/mol
168.24 K, Crystal
  molar heat capacity at constant pressure: 230.57 ± 3.4 J/K/mol
170.74 K, Crystal
  molar heat capacity at constant pressure: 232.17 ± 3.5 J/K/mol
173.23 K, Crystal
  molar heat capacity at constant pressure: 234.76 ± 3.5 J/K/mol
175.7 K, Crystal
  molar heat capacity at constant pressure: 236.78 ± 3.5 J/K/mol
178.15 K, Crystal
  molar heat capacity at constant pressure: 239.4 ± 3.5 J/K/mol
180.59 K, Crystal
  molar heat capacity at constant pressure: 242.15 ± 3.5 J/K/mol
183.01 K, Crystal
  molar heat capacity at constant pressure: 244.19 ± 3.5 J/K/mol
185.42 K, Crystal
  molar heat capacity at constant pressure: 245.75 ± 3.6 J/K/mol
187.81 K, Crystal
  molar heat capacity at constant pressure: 248.17 ± 3.6 J/K/mol
190.18 K, Crystal
  molar heat capacity at constant pressure: 251.89 ± 3.6 J/K/mol
192.55 K, Crystal
  molar heat capacity at constant pressure: 256.43 ± 3.6 J/K/mol
194.9 K, Crystal
  molar heat capacity at constant pressure: 257.21 ± 3.7 J/K/mol
197.24 K, Crystal
  molar heat capacity at constant pressure: 257.78 ± 3.7 J/K/mol
199.56 K, Crystal
  molar heat capacity at constant pressure: 262.12 ± 3.7 J/K/mol
201.88 K, Crystal
  molar heat capacity at constant pressure: 266.33 ± 3.7 J/K/mol
204.18 K, Crystal
  molar heat capacity at constant pressure: 269.86 ± 3.8 J/K/mol
206.47 K, Crystal
  molar heat capacity at constant pressure: 268.45 ± 3.8 J/K/mol
208.75 K, Crystal
  molar heat capacity at constant pressure: 272.25 ± 3.8 J/K/mol
211.01 K, Crystal
  molar heat capacity at constant pressure: 276.09 ± 3.8 J/K/mol
213.26 K, Crystal
  molar heat capacity at constant pressure: 279.59 ± 3.8 J/K/mol
215.5 K, Crystal
  molar heat capacity at constant pressure: 279.55 ± 3.8 J/K/mol
217.73 K, Crystal
  molar heat capacity at constant pressure: 283.48 ± 3.9 J/K/mol
219.95 K, Crystal
  molar heat capacity at constant pressure: 287.5 ± 3.9 J/K/mol
222.16 K, Crystal
  molar heat capacity at constant pressure: 290.42 ± 3.9 J/K/mol
224.36 K, Crystal
  molar heat capacity at constant pressure: 293.74 ± 4 J/K/mol
226.54 K, Crystal
  molar heat capacity at constant pressure: 297.69 ± 4 J/K/mol
228.71 K, Crystal
  molar heat capacity at constant pressure: 302.05 ± 4 J/K/mol
230.87 K, Crystal
  molar heat capacity at constant pressure: 307.08 ± 4.1 J/K/mol
233.01 K, Crystal
  molar heat capacity at constant pressure: 312.1 ± 4.1 J/K/mol
235.14 K, Crystal
  molar heat capacity at constant pressure: 318.94 ± 4.2 J/K/mol
237.26 K, Crystal
  molar heat capacity at constant pressure: 327.12 ± 4.2 J/K/mol
239.36 K, Crystal
  molar heat capacity at constant pressure: 337.32 ± 4.3 J/K/mol
241.44 K, Crystal
  molar heat capacity at constant pressure: 349.15 ± 4.4 J/K/mol
243.49 K, Crystal
  molar heat capacity at constant pressure: 366.65 ± 4.5 J/K/mol
245.51 K, Crystal
  molar heat capacity at constant pressure: 390.29 ± 4.7 J/K/mol
247.49 K, Crystal
  molar heat capacity at constant pressure: 425.06 ± 5 J/K/mol
265.23 K, Liquid
  molar heat capacity at constant pressure: 419.66 ± 2.5 J/K/mol
267.18 K, Liquid
  molar heat capacity at constant pressure: 419.56 ± 2.5 J/K/mol
269.12 K, Liquid
  molar heat capacity at constant pressure: 420.55 ± 2.5 J/K/mol
271.06 K, Liquid
  molar heat capacity at constant pressure: 421.01 ± 2.5 J/K/mol
272.99 K, Liquid
  molar heat capacity at constant pressure: 421.34 ± 2.5 J/K/mol
274.93 K, Liquid
  molar heat capacity at constant pressure: 422.4 ± 2.5 J/K/mol
276.86 K, Liquid
  molar heat capacity at constant pressure: 423.5 ± 2.5 J/K/mol
